From PubChem BioAssay (NCI)
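Each compound was tested at five concentrations against cells in 96-well plates for 48 hours. The concentration for 50% growth inhibition is given as GI50. TGI: concentration producing complete growth inhibition.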

Experiments:
Assay in all cases: inhibition of tumour cell growth, NCI panel, 48 h
786-0 renal = system: 786-0 renal
A498 renal = system: A498 renal
A549 NSCLC = system: A549 NSCLC
ACHN renal = system: ACHN renal
BT-549 breast = system: BT-549 breast
CAKI-1 renal = system: CAKI-1 renal
COLO 205 colon = system: COLO 205 colon
DU-145 prostate = system: DU-145 prostate
EKVX NSCLC = system: EKVX NSCLC
HCC-2998 colon = system: HCC-2998 colon
HCT-116 colon = system: HCT-116 colon
HCT-15 colon = system: HCT-15 colon
HL-60(TB) leukemia = system: HL-60(TB) leukemia
HOP-62 NSCLC = system: HOP-62 NSCLC
HOP-92 NSCLC = system: HOP-92 NSCLC
HS 578T breast = system: HS 578T breast
HT29 colon = system: HT29 colon
IGROV1 ovarian = system: IGROV1 ovarian
K-562 leukemia = system: K-562 leukemia
KM12 colon = system: KM12 colon
LOX IMVI melanoma = system: LOX IMVI melanoma
M14 melanoma = system: M14 melanoma
MALME-3M melanoma = system: MALME-3M melanoma
MCF7 breast = system: MCF7 breast
MDA-MB-231 breast = system: MDA-MB-231 breast
MDA-MB-435 = system: MDA-MB-435
MOLT-4 leukemia = system: MOLT-4 leukemia
NCI-H226 lung = system: NCI-H226 lung
NCI-H23 lung = system: NCI-H23 lung
NCI-H460 lung = system: NCI-H460 lung
NCI-H522 lung = system: NCI-H522 lung
OVCAR-3 ovarian = system: OVCAR-3 ovarian
OVCAR-4 ovarian = system: OVCAR-4 ovarian
OVCAR-5 ovarian = system: OVCAR-5 ovarian
OVCAR-8 ovarian = system: OVCAR-8 ovarian
PC-3 prostate = system: PC-3 prostate
RPMI-8226 leukemia = system: RPMI-8226 leukemia
RXF 393 renal = system: RXF 393 renal
SF-268 CNS = system: SF-268 CNS
SF-295 CNS = system: SF-295 CNS
SF-539 CNS = system: SF-539 CNS
SK-MEL-2 melanoma = system: SK-MEL-2 melanoma
SK-MEL-28 melanoma = system: SK-MEL-28 melanoma
SK-MEL-5 melanoma = system: SK-MEL-5 melanoma
SK-OV-3 ovarian = system: SK-OV-3 ovarian
SN12C renal = system: SN12C renal
SNB-19 CNS = system: SNB-19 CNS
SNB-75 CNS = system: SNB-75 CNS
SR leukemia = system: SR leukemia
SW-620 colon = system: SW-620 colon
T-47D breast = system: T-47D breast
TK-10 renal = system: TK-10 renal
U251 CNS = system: U251 CNS
UACC-257 melanoma = system: UACC-257 melanoma
UACC-62 melanoma = system: UACC-62 melanoma
UO-31 renal = system: UO-31 renal

CC(C)(O)c1coc(S(=O)(=O)/N=C(\O)Nc2c3c(cc4c2CCC4)CCC3)c1
GI50 (786-0 renal): > 100 µM | TGI (786-0 renal): > 100 µM | GI50 (A498 renal): > 100 µM | TGI (A498 renal): > 100 µM | GI50 (A549 NSCLC): > 100 µM | TGI (A549 NSCLC): > 100 µM | GI50 (ACHN renal): > 100 µM | TGI (ACHN renal): > 100 µM | GI50 (BT-549 breast): > 100 µM | TGI (BT-549 breast): > 100 µM | GI50 (CAKI-1 renal): > 100 µM | TGI (CAKI-1 renal): > 100 µM | GI50 (COLO 205 colon): > 100 µM | TGI (COLO 205 colon): > 100 µM | GI50 (DU-145 prostate): > 100 µM | TGI (DU-145 prostate): > 100 µM | GI50 (EKVX NSCLC): > 100 µM | TGI (EKVX NSCLC): > 100 µM | GI50 (HCC-2998 colon): > 100 µM | TGI (HCC-2998 colon): > 100 µM | GI50 (HCT-116 colon): > 100 µM | TGI (HCT-116 colon): > 100 µM | GI50 (HCT-15 colon): > 100 µM | TGI (HCT-15 colon): > 100 µM | GI50 (HL-60(TB) leukemia): > 100 µM | TGI (HL-60(TB) leukemia): > 100 µM | GI50 (HOP-62 NSCLC): > 100 µM | TGI (HOP-62 NSCLC): > 100 µM | GI50 (HOP-92 NSCLC): 91.9 µM | TGI (HOP-92 NSCLC): > 100 µM | GI50 (HS 578T breast): > 100 µM | TGI (HS 578T breast): > 100 µM | GI50 (HT29 colon): > 100 µM | TGI (HT29 colon): > 100 µM | GI50 (IGROV1 ovarian): > 100 µM | TGI (IGROV1 ovarian): > 100 µM | GI50 (K-562 leukemia): > 100 µM | TGI (K-562 leukemia): > 100 µM | GI50 (KM12 colon): > 100 µM | TGI (KM12 colon): > 100 µM | GI50 (LOX IMVI melanoma): > 100 µM | TGI (LOX IMVI melanoma): > 100 µM | GI50 (M14 melanoma): > 100 µM | TGI (M14 melanoma): > 100 µM | GI50 (MALME-3M melanoma): > 100 µM | TGI (MALME-3M melanoma): > 100 µM | GI50 (MCF7 breast): > 100 µM | TGI (MCF7 breast): > 100 µM | GI50 (MDA-MB-231 breast): > 100 µM | TGI (MDA-MB-231 breast): > 100 µM | GI50 (MDA-MB-435): > 100 µM | TGI (MDA-MB-435): > 100 µM | GI50 (MOLT-4 leukemia): > 100 µM | TGI (MOLT-4 leukemia): > 100 µM | GI50 (NCI-H226 lung): > 100 µM | TGI (NCI-H226 lung): > 100 µM | GI50 (NCI-H23 lung): > 100 µM | TGI (NCI-H23 lung): > 100 µM | GI50 (NCI-H460 lung): > 100 µM | TGI (NCI-H460 lung): > 100 µM | GI50 (NCI-H522 lung): > 100 µM | TGI (NCI-H522 lung): > 100 µM | GI50 (OVCAR-3 ovarian): > 100 µM | TGI (OVCAR-3 ovarian): > 100 µM | GI50 (OVCAR-4 ovarian): > 100 µM | TGI (OVCAR-4 ovarian): > 100 µM | GI50 (OVCAR-5 ovarian): > 100 µM | TGI (OVCAR-5 ovarian): > 100 µM | GI50 (OVCAR-8 ovarian): > 100 µM | TGI (OVCAR-8 ovarian): > 100 µM | GI50 (PC-3 prostate): > 100 µM | TGI (PC-3 prostate): > 100 µM | GI50 (RPMI-8226 leukemia): > 100 µM | TGI (RPMI-8226 leukemia): > 100 µM | GI50 (RXF 393 renal): > 100 µM | TGI (RXF 393 renal): > 100 µM | GI50 (SF-268 CNS): > 100 µM | TGI (SF-268 CNS): > 100 µM | GI50 (SF-295 CNS): > 100 µM | TGI (SF-295 CNS): > 100 µM | GI50 (SF-539 CNS): > 100 µM | TGI (SF-539 CNS): > 100 µM | GI50 (SK-MEL-2 melanoma): > 100 µM | TGI (SK-MEL-2 melanoma): > 100 µM | GI50 (SK-MEL-28 melanoma): > 100 µM | TGI (SK-MEL-28 melanoma): > 100 µM | GI50 (SK-MEL-5 melanoma): > 100 µM | TGI (SK-MEL-5 melanoma): > 100 µM | GI50 (SK-OV-3 ovarian): > 100 µM | TGI (SK-OV-3 ovarian): > 100 µM | GI50 (SN12C renal): > 100 µM | TGI (SN12C renal): > 100 µM | GI50 (SNB-19 CNS): > 100 µM | TGI (SNB-19 CNS): > 100 µM | GI50 (SNB-75 CNS): > 100 µM | TGI (SNB-75 CNS): > 100 µM | GI50 (SR leukemia): > 100 µM | TGI (SR leukemia): > 100 µM | GI50 (SW-620 colon): > 100 µM | TGI (SW-620 colon): > 100 µM | GI50 (T-47D breast): > 100 µM | TGI (T-47D breast): > 100 µM | GI50 (TK-10 renal): > 100 µM | TGI (TK-10 renal): > 100 µM | GI50 (U251 CNS): > 100 µM | TGI (U251 CNS): > 100 µM | GI50 (UACC-257 melanoma): > 100 µM | TGI (UACC-257 melanoma): > 100 µM | GI50 (UACC-62 melanoma): > 100 µM | TGI (UACC-62 melanoma): > 100 µM | GI50 (UO-31 renal): > 100 µM | TGI (UO-31 renal): > 100 µM
